Structures can show the parent of a compound that is named as a salt.
Assay: Solubility of PDE5 inhibitors in formulation carriers and co-solvents
Settings: for solubility in water: result in words
Excerpt: In the absence of ethanol an alternative preservative could be used, though methyl parabens and potassium sorbate precipitated out of solution.
Suitable sweeteners were sucralose (0.05%) and suitable flavourings were strawberry flavour 501094 (0.5%) and orange juice flavour 506304 (0.5%).
Cremophor EL (macrogol glycerol ricinoleate Ph Eur) was identified as a component that was able to maintain menthol, peppermint oil, aniseed and lemon oil in solution. These flavours were firstly mixed at 10% w/w with Cremophor EL, and the resultant combination then mixed with water (10% w/w in purified water). […] Note that vanillin also degraded in Cremophor EL, rendering it unusable. […] The action of Cremophor EL here is that of a water-miscible oil-based solvent. Sildenafil and vardenafil remained in solution at a concentration of at least 60 mg/ml and 30 mg/ml, respectively, in the presence of 10% Cremophor EL.

[1] = Miglyol 810 (medium-chain triglycerides Ph Eur), with or without ethanol

Compound | solubility in Miglyol 810 [1] | solubility in other potential solvents e.g. PEG (PEG, even using ethanol as a co-solvent) | solubility in water (water) | solubility in Miglyol 810 | solubility (water)
CN1CC(=O)N2[C@H](c3ccc4c(c3)OCO4)c3[nH]c4ccccc4c3C[C@@H]2C1=O [Tadalafil (base), Tadalafil] | insoluble | insoluble | insoluble | – | –
CCCc1nc(C)c2c(=O)[nH]c(-c3cc(S(=O)(=O)N4CCN(CC)CC4)ccc3OCC)nn12 [Vardenafil (hydrochloride trihydrate), vardenafil hydrochloride trihydrate] | – | – | – | insoluble | ≥ 50 mg/mL
CCCc1nn(C)c2c(=O)[nH]c(-c3cc(S(=O)(=O)N4CCN(C)CC4)ccc3OCC)nc12 [sildenafil (base), sildenafil] | Neither sildenafil (base) nor sildenafil citrate were found to be soluble | – | Neither sildenafil (base) nor sildenafil citrate were found to be soluble | – | –

— patent US20150005307A1, “Drug Delivery Technology” (LondonPharma Ltd., priority 2011, published 2015)
